# Results reported in paper PMC2635417 (The Journal of endocrinology, 2008).
# Entries after “also recorded” stand apart in the source; their conditions may differ. Read-outs that look alike come from different tables or passages of the source. No end group written: not given here.
# How the values were obtained:
# [1] = tested on: CRH receptors (CRH-R1 and CRH-R2) in αT3-1 cells; type: cell-based, murine; details: 1 mM IBMX, p<0.05; for inhibition of CRH-mediated cAMP increase: 10 μM α-helical CRH 9–41 or 1 μM astressin with 100 nM CRH, 3 min; for inhibition of UCN1-mediated cAMP increase: 10 μM α-helical CRH 9–41 or 1 μM astressin with 100 nM UCN1, 3 min
# CRH-R2 in αT3-1 cells = test: Antisauvagine; type: cell-based, murine; details: 1 μM antisauvagine, 15 min pretreatment; for effect of antisauvagine alone on cAMP: versus vehicle
# αT3-1 cells [2] = test: Total inositol phosphate levels; type: cell-based, murine; details: treatment alone; preliminary studies, unpublished data, A. Seasholtz
# αT3-1 cells [3] = details: cited from earlier work
# [4] = tested on: PACAP receptor in LβT2 gonadotrope like cell line; details: LβT2 cells; ref Lariviere, et al. 2008; cited from earlier work
# α-subunit in αT3-1 cells = details: ref Attardi and Winters 1998, Burrin, et al. 1998, Schomerus, et al. 1994, Tsujii, et al. 1995; cited from earlier work
substance,measurement,setting,value
alpha-helical CRH (9–41) [α-helical CRH 9–41],inhibition of CRH-mediated cAMP increase,[1],reduced cAMP values to vehicle-treated levels
same,inhibition of CRH-mediated cAMP increase,[1]; listed as α-helical CRH 9-41,completely blocked; also recorded: completely inhibited
same,inhibition of UCN1-mediated cAMP increase,[1],reduced cAMP values to vehicle-treated levels
same,inhibition of UCN1-mediated cAMP increase,[1]; listed as α-helical CRH 9-41,completely blocked; also recorded: completely inhibited
antisauvagine,repression of UCN1-mediated cAMP increase,"CRH-R2 in αT3-1 cells; then 100 nM UCN1 3 min, partial block",75%
same,inhibition of UCN3-mediated cAMP increase,"CRH-R2 in αT3-1 cells; then 100 nM UCN3 3 min, p<0.05",completely blocked
same,effect of antisauvagine alone on cAMP,CRH-R2 in αT3-1 cells,did not significantly differ from vehicle
same,effect of antisauvagine alone on cAMP,CRH-R2 in αT3-1 cells; listed as AS,no significant difference
astressin,inhibition of CRH-mediated cAMP increase,[1],completely blocked; also recorded: complete suppression; also recorded: completely inhibited; also recorded: significant repressions
same,inhibition of UCN1-mediated cAMP increase,[1],completely blocked; also recorded: complete suppression; also recorded: completely inhibited; also recorded: significant repressions
"gonadotropin- releasing hormone (QHWSYGLRPG; Gonadoliberin-1; UniProt P01148 24-33, looked up) [GnRH]",effect on total inositol phosphate levels,αT3-1 cells [2],dramatically increases total inositol phosphate levels
same,effect on cAMP levels,"αT3-1 cells [3]; alone, ref McArdle and Counis 1996, McArdle, et al. 1994",does not alter cAMP levels
same,PACAP receptor phosphorylation by PKC,[4],stimulating PACAP receptor phosphorylation by PKC
"pituitary adenylyl cyclase activating polypeptide (HSDGIFTDSYSRYRKQMAVKKYLAAVLGKRYKQRVKNK-NH2; ends and bridges not checked; UniProt P18509 132-169, looked up) [PACAP]",effect on cAMP levels,"αT3-1 cells [3]; ref Attardi and Winters 1998, Burrin, et al. 1998, Schomerus, et al. 1994, Tsujii, et al. 1995",increase intracellular cAMP levels
same,α-subunit transcriptional activity / mRNA / expression,α-subunit in αT3-1 cells,increased transcriptional activity and steady state levels of α-subunit mRNA; also recorded: increased α-subunit expression
